In one assay the target is hERG channel (Homo sapiens (Human), UniProt Q12809). Nature of the assay: hERG manual patch clamp. In kind it is cell-based. Here is the method:
Cell lines and cell culture. HEK 293 cell line stably expressing hERG channel (Cat #K1236) was purchased from Invitrogen. The cells are cultured in 85% DMEM, 10% dialyzed FBS, 0.1 mM NEAA, 25 mM HEPES, 100 U/mL Penicillin-Streptomycin and 5 μg/mL Blasticidin and 400 μg/mL Geneticin. Cells were split using TrypLE™ Express about three times a week, and maintained between ˜40% to […] confluence. Before the assay, the cells were transferred onto the coverslips at 5×10^5 cells/per 6 cm cell culture dish and induced with doxycycline at 1 μg/mL for 48 hours.
Solution preparations. Extracellular solution (in mM): 132 NaCl, 4 KCl, 3 CaCl2, 0.5 MgCl2, 11.1 glucose, and 10 HEPES (pH adjusted to 7.35 with NaOH) Intracellular solution (in mM): 140 KCl, 2 MgCl2, 10 EGTA, 10 HEPES and 5 MgATP (pH adjusted to 7.35 with KOH). […]
Experimental procedure. […] The holding potential was set to −90 mV for 500 ms and the current was recorded at 50 kHz and filtered at 10 kHz. […]
The hERG current was elicited by depolarizing at +30 mV for 4.8 seconds and then the voltage was taken back to −50 mV for 5.2 seconds to remove the inactivation and observe the deactivating tail current. […] The current was recorded for 120 seconds to assess the current stability. […]
Data that met the above criteria for hERG current quality were further analyzed. Percent hERG current inhibition was calculated using the following equation. […]
(In general: hERG is a cardiac potassium channel; its block is linked to QT prolongation.)

Assay [1] has as its target β2 adrenergic receptors in human astrocytoma cells (1321N1) (Homo sapiens (Human), UniProt P07550). Nature of the assay: cAMP HTRF assay in human astrocytoma cells (1321N1). Format: cell-based. The settings on record: Endogenous receptor, 1321N1 cells. Summed up:
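Intracellular cAMP quantified by Eu-donor/d2-acceptor HTRF after 30 min compound exposure at 37° C in stimulation buffer with IBMX. Concentrations ran 10 μM top, 5-fold steps, 10 points. Cell lines: 1321N1 astrocytoma and CHO expressing β1 or β2; EC50 via four-parameter fit, relative efficacy against isoproterenol.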
Background: Time-resolved FRET reads energy transfer from a long-lived donor to a nearby acceptor.

Read-outs that look alike come from different tables or passages of the source.

Data on 3 molecules can be found in patent US10947196B2, “Beta adrenergic agonist and methods of using the same” (CURASEN THERAPEUTICS, INC., priority 2019, dated 2021).

β2 adrenergic receptors in human astrocytoma cells (1321N1), sequence (P07550 whole entry): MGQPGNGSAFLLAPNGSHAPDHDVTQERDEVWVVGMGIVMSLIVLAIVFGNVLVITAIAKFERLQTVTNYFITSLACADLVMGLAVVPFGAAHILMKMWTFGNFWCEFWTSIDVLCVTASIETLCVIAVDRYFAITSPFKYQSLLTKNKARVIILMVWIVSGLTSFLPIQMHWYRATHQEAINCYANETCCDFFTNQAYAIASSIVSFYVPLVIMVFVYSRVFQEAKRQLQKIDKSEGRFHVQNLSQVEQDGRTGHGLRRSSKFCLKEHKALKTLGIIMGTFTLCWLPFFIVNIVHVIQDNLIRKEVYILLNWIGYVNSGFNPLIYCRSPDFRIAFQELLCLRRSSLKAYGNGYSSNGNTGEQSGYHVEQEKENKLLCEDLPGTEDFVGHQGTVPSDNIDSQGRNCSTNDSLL
hERG channel, sequence (Q12809 whole entry): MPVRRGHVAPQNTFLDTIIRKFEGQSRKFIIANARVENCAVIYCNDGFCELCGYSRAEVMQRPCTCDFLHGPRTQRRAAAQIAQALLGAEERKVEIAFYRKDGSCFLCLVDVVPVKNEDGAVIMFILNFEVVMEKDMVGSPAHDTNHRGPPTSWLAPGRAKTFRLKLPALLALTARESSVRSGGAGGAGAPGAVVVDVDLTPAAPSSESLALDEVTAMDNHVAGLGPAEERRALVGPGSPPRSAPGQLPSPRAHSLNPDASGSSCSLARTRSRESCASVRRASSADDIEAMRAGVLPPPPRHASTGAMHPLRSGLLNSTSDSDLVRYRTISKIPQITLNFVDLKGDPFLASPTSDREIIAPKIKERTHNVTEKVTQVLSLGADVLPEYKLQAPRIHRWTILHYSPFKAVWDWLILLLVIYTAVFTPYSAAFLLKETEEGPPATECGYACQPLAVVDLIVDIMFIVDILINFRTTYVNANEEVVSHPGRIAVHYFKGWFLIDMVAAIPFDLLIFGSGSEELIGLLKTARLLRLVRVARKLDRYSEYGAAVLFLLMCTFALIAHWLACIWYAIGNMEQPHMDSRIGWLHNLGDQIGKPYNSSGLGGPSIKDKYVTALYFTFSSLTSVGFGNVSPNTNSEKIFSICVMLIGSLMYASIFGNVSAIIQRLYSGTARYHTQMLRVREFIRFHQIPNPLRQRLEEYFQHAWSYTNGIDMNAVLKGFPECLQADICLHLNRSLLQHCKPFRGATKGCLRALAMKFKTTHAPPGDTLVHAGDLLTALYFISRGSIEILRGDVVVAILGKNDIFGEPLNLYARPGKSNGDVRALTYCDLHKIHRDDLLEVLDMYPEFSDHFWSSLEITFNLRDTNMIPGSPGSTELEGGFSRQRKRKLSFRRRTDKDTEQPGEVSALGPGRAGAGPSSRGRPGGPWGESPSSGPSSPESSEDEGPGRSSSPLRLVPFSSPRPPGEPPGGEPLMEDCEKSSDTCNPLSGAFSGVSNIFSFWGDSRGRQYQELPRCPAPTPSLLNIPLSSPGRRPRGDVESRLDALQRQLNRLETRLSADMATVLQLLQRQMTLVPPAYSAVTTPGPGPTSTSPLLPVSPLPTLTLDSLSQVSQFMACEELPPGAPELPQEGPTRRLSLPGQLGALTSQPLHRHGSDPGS

The IC50 is the point on the concentration scale where inhibition reaches its midpoint. For `CC(C)(C)NC[C@H](O)c1cccc(C(F)(F)F)n1` [Compound 03-3], on hERG channel, the half-inhibitory concentration (IC50) is more than 30000 nM.

For `CC(C)(C)NC[C@H](O)c1cccc(C#N)n1` [Compound 03-5, (S)-6-(2-(tert-butylamino)-1-hydroxyethyl)picolinonitrile], the half-maximal inhibitory concentration (IC50) on hERG channel (manual patch clamp, HEK 293 cells, read-out: hERG IC50) is more than 30000 nM. Also, the “Average pEC50 [Receptor subtype: Endogenous; Cell type: 1321N1]” value in assay [1] is given as “C-B”. Further, the EC50 in assay [1] (read-out: Average EC50 [Receptor subtype: Endogenous, Cell type: 1321N1]) lay within 10 to 100 nM. On to `Cc1ncccc1[C@@H](O)CNC(C)(C)C` [Compound 03-115], for which, in assay [1] (read-out: Average pEC50 [Receptor subtype: Endogenous, Cell type: 1321N1] (converted)), the EC50 was 100 to 1000 nM.
